Measurements reported in patent US20110105457A1, “HETEROCYCLIC COMPOUND HAVING INHIBITORY ACTIVITY ON PI3K” (SHIONOGI & CO., LTD., priority 2008, published 2011).

Assays:
[1] = Metabolic stability test, pooled human liver microsome; format: in vitro ADME; settings: human liver microsome 0.5 mg protein/mL, NADPH, 37 degrees Celsius, 30 minutes
Method: After a subject compound was reacted for a certain time using a pooled human liver microsome commercially available, a reacted sample and an unreacted sample are compared to calculate a survival ratio, and then the degree of metabolism in the liver was evaluated.
0.2 mL of a buffer solution (50 mmol/L of Tris-HCl in pH 7.4, 150 mmol/L of potassium chloride, and 10 mmol/L of magnesium chloride) containing a human liver microsome of 0.5 mg protein/mL was reacted in the presence of 1 mmol/L NADPH at 37 degrees Celsius for 0 or 30 minutes (oxidative reaction). After reacting, 50 μL of the reaction solution was added to 100 μL of a solution of methanol/acetonitrile (1/1(v/v)), mixed, and then centrifuged at 3000 rpm for 15 minutes. A test compound in the supernatant was quantitated with LC/MS/MS. An amount of the compound remained at a reaction time of 0 minute was defined as 100%, and, based on that, an amount of the test compound remained after the reaction was calculated.

PI-3 kinase γ = PI-3 kinase γ (Homo sapiens, UniProt P48736); experiment: PI3Kγ inhibitory activity, PI3-kinase HTRF assay (Millipore); format: biochemical; settings: 0.5 h; compound 50 μM; read-out: Inhibition ratio % (50 μM)
Method: (Method) The PI3Kγ inhibitory activity of a compound was evaluated using PI3-kinase HTRF™ assay (Millipore) according to the following procedure.
To each well of a testing plate was added 5 μL of a compound solution comprising 10% DMSO (200 μM as the concentration of the compound), 5 μL of 40 μM phosphatidylinositol (4,5)-bisphosphate/20 mM MgCl2/10 mM DTT, and 5 μL of 80 μg/mL PI-3 kinase γ/10 mM MgCl2/5 mM DTT, and then stood for 10 minutes.
Then, 5 μL of 40 μM ATP/10 mM MgCl2/5 mM DTT was added thereto. After reacting for 30 minutes at room temperature, 5 μL of a solution comprising EDTA and biotinylated phosphatidylinositol (3,4,5)-triphosphate was added to quench the reaction.
5 μL of a detection reagent comprising a europium-labeled anti-GST antibody, the GST-tagged PH domain, and allophycocyanin-labeled streptavidin was added thereto. After 18 hours, HTRF (excitation wavelength: 330 nm, measuring wavelengths: 620 nm and 665 nm) was measured.
A value of dividing an amount of fluorescence obtained at the measuring wavelength 665 nm by an amount of fluorescence obtained at 620 nm was defined as an HTRF ratio. The HTRF ratio in the absence of a compound was defined as 100% activity, and the HTRF ratio in the absence of PI-3 kinase γ was defined as 0% activity to calculate an inhibition ratio.

Solubility test = format: physicochemical; settings: 25 °C, fassgf or other biorelevant, kinetic from dmso stock, artificial intestinal juice pH 6.8, 1% DMSO, 25 degrees Celsius
Method: 10 mM compound solution was prepared using DMSO, and then 6 μL of the compound solution was added to 594 μL of artificial intestinal juice in pH 6.8 (to 250 mL of 0.2 mol/L potassium dihydrogen phosphate reagent solution was added 118 mL of 0.2 mol/L NaOH reagent solution and water to provide a final volume of 1000 mL). After standing at 25 degrees Celsius for 16 hours, the mixed solution was filtrated with suction. The filtrate was diluted twice with methanol/water (1/1), and then a concentration in the filtration was measured with HPLC or LC/MS/MS by the absolute calibration method.

[2] = system: AKT phosphorylation (Ser473) in THP-1 cells; experiment: AKT phosphorylation inhibitory activity in MCP-1 stimulated THP-1 cells (ELISA); format: cell-based, human; settings: MCP-1 stimulation, compound concentration not given
Method: (1) The AKT phosphorylation inhibitory activity of a compound was evaluated according to the following procedure. (2) Human monocyte-like cell line THP-1 was washed with RPMI-1640 media, incubated in the presence of 5% CO2 at 37 degrees Celsius for 3 hours, washed with Hank's balanced salt solution (HBSS), adjusted to a cell concentration of 6.6×10^6/mL, and then used in an experiment. (3) 30 μL of the cell suspension and 60 μL of each compound solution comprising 0.2% DMSO/HBSS are mixed, and then preincubated at 37 degrees Celsius for 5 minutes. 30 μL of HBSS comprising 4 μg/mL of MCP-1 was added thereto, and then incubated for 30 seconds at 37 degrees Celsius. (4) 30 μL of 20 mM Tris-HCl (pH 7.5)/150 mM NaCl/1 mM Na2EDTA/1 mM EGTA/1% Triton/2.5 mM sodium pyrophosphate/1 mM β-glycerophosphate/1 mM Na3VO4/1 μg/ml leupeptin/50 nM APMSF was added thereto to dissolve cells. (5) The amount of AKT phosphorylation in a cell solution was measured by ELISA method. (6) To a micro well plate to which anti-phospho-Akt (Ser473) antibody (clone 193H12, derived from a rabbit) was solid-phased was added 100 μL of a prepared cell solution, incubated for 2 hours at 37 degrees Celsius, and then washed four times with Phosphate Buffered Saline/0.05% Tween-20. (7) An anti-AKT1 antibody (clone 2H10, derived from a mouse) was added thereto, incubated for 1 hour at 37 degrees Celsius, washed similarly, and then reacted with an HRP-labeled anti-mouse IgG antibody. (8) After incubating at 37 degrees Celsius for 30 minutes and then washing similarly, 100 μL of TMB (3,3′,5,5″-tetramethylbenzidine) was added thereto, followed by reacting at room temperature for 30 minutes. (9) 100 μL of 1 mol/L sulfuric acid was added to quench the color reaction, and then the absorbance at 450 nm was measured. (10) A series of diluted cell solutions of a positive control (a sample in the absence of a compound) were used as a calibration curve, the amount of AKT phosphorylation in a sample in the absence of MCP-1 was defined as 0% activity to calculate an inhibition ratio.

[3] = molecular target: T1, human ether-a-go-go related gene (hERG) channel (Homo sapiens, UniProt Q12809); experiment: hERG test, whole-cell patch-clamp in HEK293 cells; format: cell-based; settings: HEK293 cells expressing hERG; concentration not given
T1 construct: expressed in transfected cells; host or cells: HEK293
From the text: For the purpose of a risk evaluation of QT interval extension of electrocardiogram, using the HEK293 cell that was made express human ether-a-go-go related gene (hERG) channel, the activity on delayed rectification K^+ current (IKr) playing an important role in a cardiac ventricle repolarization process was examined.
Using an automatic patch-clamp system (PatchXpress 7000A, Axon Instruments Inc.), by a whole-cell patch-clamp method, after the cell was maintained at a membrane potential of −80 mV, IKr induced on giving depolarizing stimulation of +50 mV for 2 seconds and further repolarizing stimulation of −50 mV for 2 seconds was recorded. After generated current became stable, extracellular fluid (NaCl: 137 mmol/L, KCl: 4 mmol/L, CaCl2.2H2O: 1.8 mmol/L, MgCl2.6H2O: 1 mmol/L, glucose: 10 mmol/L, HEPES (4-(2-hydroxyethyl)-1-piperazineethanesulfonic acid): 10 mmol/L, pH=7.4) dissolving a test substance at an intended concentration was applied to the cell for 10 minutes under room temperature condition. From the IKr obtained, using an analysis soft (DataXpress ver. 1, Molecular Devices Corporation), a current value in a membrane potential maintained was used as a standard, and the absolute value of the maximum tail current was measured. Moreover, an inhibition ratio for the maximum tail current prior to the application of the test substance was calculated, and then compared with a group of media-application (0.1% dimethylsulfoxide solution) to evaluate influence of the test substance on IKr.

T1 sequence (Q12809 whole entry): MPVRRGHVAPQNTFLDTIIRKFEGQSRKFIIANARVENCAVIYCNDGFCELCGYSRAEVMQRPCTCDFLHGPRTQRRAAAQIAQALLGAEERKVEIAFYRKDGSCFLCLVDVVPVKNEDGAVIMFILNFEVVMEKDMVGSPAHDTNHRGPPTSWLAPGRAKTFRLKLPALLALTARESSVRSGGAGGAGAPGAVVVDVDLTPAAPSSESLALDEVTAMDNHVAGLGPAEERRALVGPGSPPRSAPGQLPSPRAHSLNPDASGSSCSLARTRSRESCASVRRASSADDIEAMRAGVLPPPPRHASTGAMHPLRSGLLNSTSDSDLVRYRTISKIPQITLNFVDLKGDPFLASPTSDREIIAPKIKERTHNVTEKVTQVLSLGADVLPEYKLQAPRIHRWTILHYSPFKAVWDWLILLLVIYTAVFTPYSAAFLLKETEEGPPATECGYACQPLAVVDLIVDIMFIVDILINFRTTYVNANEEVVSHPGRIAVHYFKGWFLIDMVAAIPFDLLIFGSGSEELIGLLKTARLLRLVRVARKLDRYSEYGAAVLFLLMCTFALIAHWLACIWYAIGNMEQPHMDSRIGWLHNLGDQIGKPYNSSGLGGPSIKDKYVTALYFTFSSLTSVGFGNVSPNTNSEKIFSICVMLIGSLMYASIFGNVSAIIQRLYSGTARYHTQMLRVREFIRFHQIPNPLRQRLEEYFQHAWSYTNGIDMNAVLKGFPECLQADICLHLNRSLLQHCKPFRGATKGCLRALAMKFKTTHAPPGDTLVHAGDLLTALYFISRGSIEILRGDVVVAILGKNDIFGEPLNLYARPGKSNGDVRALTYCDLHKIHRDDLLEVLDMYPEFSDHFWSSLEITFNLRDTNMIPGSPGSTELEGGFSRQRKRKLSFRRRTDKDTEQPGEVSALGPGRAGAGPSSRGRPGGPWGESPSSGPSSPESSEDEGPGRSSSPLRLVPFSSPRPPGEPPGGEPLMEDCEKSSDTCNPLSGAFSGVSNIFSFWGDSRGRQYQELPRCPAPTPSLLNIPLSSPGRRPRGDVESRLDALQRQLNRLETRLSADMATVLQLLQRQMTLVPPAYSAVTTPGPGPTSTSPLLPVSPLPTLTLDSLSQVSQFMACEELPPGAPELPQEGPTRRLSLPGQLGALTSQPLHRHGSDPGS
Sequence of PI-3 kinase γ (P48736 whole entry): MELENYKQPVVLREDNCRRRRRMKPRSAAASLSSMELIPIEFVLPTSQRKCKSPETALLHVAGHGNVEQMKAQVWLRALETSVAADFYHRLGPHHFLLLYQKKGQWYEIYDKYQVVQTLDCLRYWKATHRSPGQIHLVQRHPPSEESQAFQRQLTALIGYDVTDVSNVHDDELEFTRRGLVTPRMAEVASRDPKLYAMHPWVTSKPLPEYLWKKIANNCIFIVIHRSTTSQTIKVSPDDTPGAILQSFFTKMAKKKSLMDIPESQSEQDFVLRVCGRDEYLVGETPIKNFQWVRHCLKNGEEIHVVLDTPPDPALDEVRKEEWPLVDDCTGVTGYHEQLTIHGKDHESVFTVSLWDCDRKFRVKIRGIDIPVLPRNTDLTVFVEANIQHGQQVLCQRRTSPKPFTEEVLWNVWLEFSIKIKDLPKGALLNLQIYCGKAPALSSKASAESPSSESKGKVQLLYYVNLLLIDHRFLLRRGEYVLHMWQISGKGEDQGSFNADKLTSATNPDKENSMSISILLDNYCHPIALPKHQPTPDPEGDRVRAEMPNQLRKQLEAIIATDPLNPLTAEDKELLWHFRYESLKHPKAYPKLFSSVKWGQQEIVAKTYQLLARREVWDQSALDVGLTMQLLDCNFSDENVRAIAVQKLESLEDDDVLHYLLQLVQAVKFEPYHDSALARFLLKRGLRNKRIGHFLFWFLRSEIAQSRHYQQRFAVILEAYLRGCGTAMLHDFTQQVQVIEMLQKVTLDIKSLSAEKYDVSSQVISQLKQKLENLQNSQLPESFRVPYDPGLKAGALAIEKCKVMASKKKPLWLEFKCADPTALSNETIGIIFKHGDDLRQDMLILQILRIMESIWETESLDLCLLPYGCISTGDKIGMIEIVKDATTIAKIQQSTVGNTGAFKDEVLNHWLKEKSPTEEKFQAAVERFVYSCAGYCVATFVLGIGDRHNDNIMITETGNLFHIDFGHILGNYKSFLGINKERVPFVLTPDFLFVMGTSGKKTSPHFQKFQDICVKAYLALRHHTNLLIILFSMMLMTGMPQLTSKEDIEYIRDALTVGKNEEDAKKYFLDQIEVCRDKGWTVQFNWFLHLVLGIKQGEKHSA

Row | SMILES | inhibition at 50 µM (PI-3 kinase γ) [%] | also measured
1 | CNC(=O)Nc1cn2nc(-c3cccc(C(=O)O)c3)ccc2n1 [Compound I-28] | 89 | Amount of the test compound remained after the reaction [1]: 98.6%; solubility at 16 h (Solubility test): > 50 µM
2 | CNC(=O)Nc1cn2nc(-c3cccc(C(N)=O)c3)ccc2n1 [Compound I-29] | 84 | Amount of the test compound remained after the reaction [1]: 98.8%
3 | CNC(=O)Nc1cn2nc(-c3cccnc3)ccc2n1 [Compound I-37] | 86 | Amount of the test compound remained after the reaction [1]: 96.8%; solubility at 16 h (Solubility test): > 50 µM; AKT phosphorylation inhibition ratio [2]: 86.7%
4 | CNC(=O)Nc1cn2nc(-c3cccc(S(C)(=O)=O)c3)ccc2n1 [Compound I-75] | 84 | solubility at 16 h (Solubility test): > 50 µM
5 | COc1cccc(-c2ccc3nc(NC(=O)Nc4ccccc4)cn3n2)c1 [Compound I-118] | 64 | Amount of the test compound remained after the reaction [1]: 95.9%
6 | CCNC(=O)Nc1cn2nc(-c3cccc(OC)c3)ccc2n1 [Compound I-119] | 96 | AKT phosphorylation inhibition ratio [2]: 92.9%
7 | CNC(=O)Nc1cn2nc(-c3cccc(CCCO)c3)ccc2n1 [Compound I-136] | 79 | solubility at 16 h (Solubility test): > 50 µM
8 | CNC(=O)Nc1cn2nc(-c3cccc(C(=O)N4CCCC4)c3)ccc2n1 [Compound I-137] | 81 | Inhibition ratio for the maximum tail current (IKr) [3]: 8.4%
9 | CNC(=O)Nc1cn2nc(-c3cccc(N(C)C)c3)ccc2n1 [Compound I-143] | 102 | Inhibition ratio for the maximum tail current (IKr) [3]: 7.8%
10 | COc1cccc(-c2ccc3nc(NC(=O)c4ccccc4Cl)cn3n2)c1 [Compound I-163] | 58 | Amount of the test compound remained after the reaction [1]: 98.1%
11 | CCC(C)C(=O)Nc1cn2nc(-c3cccc(OC)c3)ccc2n1 (stereo not drawn) [Compound I-182] | 98 | Inhibition ratio for the maximum tail current (IKr) [3]: 9.3%
12 | CCOC(=O)c1nc[nH]c1C(=O)Nc1cn2nc(-c3cccc(OC)c3)ccc2n1 [Compound I-208] |  | Inhibition ratio for the maximum tail current (IKr) [3]: 0.5%
13 | COc1cccc(-c2ccc3nc(NC(=O)CCCn4cncn4)cn3n2)c1 [Compound I-210] | 85 | Amount of the test compound remained after the reaction [1]: 97%
14 | COc1cccc(-c2ccc3nc(NC(=O)NCC(=O)OC(C)(C)C)cn3n2)c1 [Compound I-248] | 71 | Inhibition ratio for the maximum tail current (IKr) [3]: 6.7%
15 | COc1cccc(-c2ccc3nc(NC(=O)NCCCS(=O)(=O)c4ccccc4)cn3n2)c1 [Compound I-266] |  | AKT phosphorylation inhibition ratio [2]: 90.1%
16 | COc1cccc(-c2ccc3nc(NC(=O)NCCO)cn3n2)c1 [Compound I-270] | 82 | solubility at 16 h (Solubility test): > 50 µM
17 | COc1cccc(-c2ccc3nc(NC(=O)NO)cn3n2)c1 [Compound I-274] | 88 | AKT phosphorylation inhibition ratio [2]: 82.6%
18 | CNC(=O)Nc1cn2nc(C(=O)c3ccccc3)ccc2n1 [Compound I-280] | 92 | Inhibition ratio for the maximum tail current (IKr) [3]: 5.8%
19 | CNC(=O)Nc1cn2nc(Sc3cccc(OC)c3)ccc2n1 [Compound I-281] | 78 | 
20 | CNC(=O)Nc1cn2nc(Cc3cccc(OC)c3)ccc2n1 [Compound I-282] | 78 | 
21 | COc1cccc(-c2ccc3nc(Nc4cccc(C(C)=O)c4)cn3n2)c1 [Compound I-283] | 86 | 
22 | COc1cccc(-c2ccc3nc(Nc4cccc(CO)c4)cn3n2)c1 [Compound I-284] | 111 | 
23 | COC(=O)c1cccc(Nc2cn3nc(-c4cccc(OC)c4)ccc3n2)c1 [Compound I-285] | 96 | 
24 | COc1cccc(-c2ccc3nc(Nc4cccc([N+](=O)[O-])c4)cn3n2)c1 [Compound I-286] | 87 | 
25 | COc1ccc(Nc2cn3nc(-c4cccc(OC)c4)ccc3n2)cc1 [Compound I-287] | 101 | 
26 | COc1cccc(-c2ccc3nc(Nc4ccc(OCCO)cc4)cn3n2)c1 [Compound I-288] | 107 | 
27 | COc1cccc(-c2ccc3nc(Nc4ccc(CO)cn4)cn3n2)c1 [Compound I-289] | 127 | 
28 | COc1cccc(-c2ccc3nc(Nc4cccc(O)n4)cn3n2)c1 [Compound I-290] | 92 | 
29 | COc1cccc(-c2ccc3nc(NC(C)=O)cn3n2)c1 [Compound I-291] | 74 | 
